Experimental data taken from patent publication US4039674A, “3-(3-Methyl-2-octyl)-1-[4-(1-ho mopiperidine)butyryloxy]-6,6,9-trimethyl-7,8,9,10-tetrahydro-6H-dibenzo [b,d]pyran hydrochloride as an anticonvulsant agent” (Abbott Laboratories, priority 1976, dated 1977).
Entries after “also recorded” stand apart in the source; their conditions may differ. Where a name gives a salt, the structure may show the parent alone. Read-outs that look alike come from different tables or passages of the source.

Tests used:
[1] = tested on: hind limb tonic extensor component of the audiogenic seizure; assay: Audiogenic seizure in mice (tonic extensor component), single oral dose; assay type: in vivo, male O'Grady strain mice; settings: for ED50: Mus musculus, po; for activity over time / time of peak effect: single oral dose, 1, 4 and 24 hours
Source text: (§1) In this test, male O'Grady strain mice (14-16 grams) especially bred for susceptibility to audiogenic seizures were used as subjects. The audiogenic seizure apparatus consisted of a wooden box enclosing a metal container with two doorbells attached to the upper section. The test consisted of administering the test drug orally as a suspension in 10% olive oil and 90% Methocel (0.5%) to ten animals per dose. […] The test drugs included the present compound, DMHP, DPH, Δ^9 -THC and Phenobarbital.

[2] = tested on: all components of audiogenic seizures; assay: Audiogenic seizure test in mice (complete seizure protection); assay type: in vivo, male O'Grady strain mice; settings: single oral dose; for ED50: Mus musculus
Source text: as §1
The animals, diluent, apparatus and experimental procedure described in Example 1 above were used for the present test in mice to determine the complete seizure protection of the various compounds. The compounds tested included the present compound, DMHP and Δ^9 -THC.

[3] = tested on: hind limb tonic extension seizure (supramaximal electroshock); assay: Supramaximal electroshock seizures in rats (single oral dose); assay type: in vivo, male Long-Evans rats; settings: for ED50: Rattus norvegicus, rats, single oral dose
Source text: In this test, male Long-Evans rats (170-190 grams) were orally administered the test drugs as a suspension in olive oil and Methocel 0.5% to 5 or 10 animals per dose. At one and four hours post drug administration each animal received an electroshock (150 milliamp for 0.2 seconds) through corneal electrodes to produce a hind limb tonic extension seizure. The animals were considered protected when the hind limb tonic extensor component was blocked.

[4] = tested on: hind limb tonic extensor component of the audiogenic seizure; assay: Audiogenic seizure test in mice (5-day chronic administration); assay type: in vivo, male O'Grady strain mice; settings: for ED50: Mus musculus, fifth day, 4 hr post drug administration, read-out: Five day chronic audiogenic seizure test ED50 4 hr; for ED50 / activity in abolishing hind limb tonic extensor component: mice, oral; for activity in abolishing hind limb tonic extensor component: five consecutive days
Source text: as §1
In this test, the animals, diluent and apparatus described in Example 1, above, were used. The experimental procedure consisted of administering the test drugs orally for four days at 0.5 mg./kg. for the present compound and DMHP, and 1.0 and 0.1 mg./kg., respectively, for DPH and phenobarbital. On the fifth day of testing a dose response study (N=10 animals per dose) was initiated to obtain the ED50 for each compound.

[5] = tested on: hind limb tonic extension seizure (supramaximal electroshock); assay: Supramaximal electroshock test in rats (5-day chronic administration); assay type: in vivo, male Long-Evans rats; settings: for ED50: Rattus norvegicus, 5-day oral administration, fifth day, 4 hr post drug administration, read-out: ED50 4 hr (50% of animals protected from hind limb tonic extension)
[6] = Side effects (sedation and irritability) on repeated medication; assay type: in vivo; settings: within a few days of medication
[7] = 1 h, mice, single oral dose, 1 hr post drug administration, read-out: 1 hr ED50 (50% of animals protected from hindlimb tonic extension)
[8] = 4 h, mice, single oral dose, 4 hr post drug administration, read-out: 4 hr ED50 (50% of animals protected from hindlimb tonic extension)
[9] = 24 h, mice, single oral dose, 24 hr post drug administration, read-out: 24 hr ED50 (50% of animals protected from hindlimb tonic extension)
[10] = 1 hr, read-out: 1 hr ED50 (50% of animals protected from hindlimb tonic extension)
[11] = 4 hr, read-out: 4 hr ED50 (50% of animals protected from hindlimb tonic extension)
[12] = 4 hr post drug administration, read-out: Complete seizure protection 4 hr ED50
[13] = 5-day oral, 2.5 mg./kg. (present compound, DMHP), 30.0 mg./kg. (DPH)

## CCCCCc1cc(O)c2c(c1)OC(C)(C)C1CCC(C)=CC21 (single isomer, unassigned) [Δ9-THC]
[1]; [7]
  ED50: 5 mg/kg
[1]; [8]
  ED50: 38.8 mg/kg
[1]; [9]
  ED50: > 100 mg/kg
[1]; mice
  activity over time / time of peak effect: most active at the one hour period
[2]; 1 h, one hour data, read-out: Complete seizure protection ED50 (one hour data)
  ED50: 6.5 mg/kg
[3]; [10]
  ED50: 53.3 mg/kg
[3]; [11]
  ED50: 40.6 mg/kg
[3]; 24 hr, read-out: 24 hr ED50
  ED50: > 200 mg/kg

## CCCCCC(C)C(C)c1cc(O)c2c(c1)OC(C)(C)C1=C2CC(C)CC1 (stereo not shown) [DMHP]
[1]; [7]
  ED50: 6.7 mg/kg
[1]; [8]
  ED50: 2.9 mg/kg
[1]; [9]
  ED50: 15.1 mg/kg
[1]; mice
  activity over time / time of peak effect: active over a prolonged period (24 hours)
[2]; [12]
  ED50: 6.7 mg/kg
[4]
  ED50: 1.6 mg/kg
[3]; [10]
  ED50: 4.6 mg/kg
[3]; [11]
  ED50: 7.5 mg/kg
[3]; 24 hr, read-out: 24 hr ED50
  ED50: 66.8 mg/kg
[5]; [13]
  tolerance to anticonvulsant activity: slight tolerance
[5]
  ED50: 26.7 mg/kg

## O=C1NC(=O)C(c2ccccc2)(c2ccccc2)N1 [DPH, diphenylhydantoin]
[1]; [7]
  ED50: 1.7 mg/kg
[1]; [8]
  ED50: 3.3 mg/kg
[1]; [9]
  ED50: 11 mg/kg
[4]
  ED50: < 0.5 mg/kg
[3]; [10]
  ED50: 23 mg/kg
[3]; [11]
  ED50: 62.2 mg/kg
[3]; 24 hr, read-out: 24 hr ED50
  ED50: > 200 mg/kg
[5]
  ED50: 26.6 mg/kg

## CCC1(c2ccccc2)C(=O)NC(=O)NC1=O [Phenobarbital]
[1]; [7]
  ED50: 1.9 mg/kg
[1]; [8]
  ED50: 0.3 mg/kg
[1]; [9]
  ED50: 6 mg/kg
[1]; mice
  activity over time / time of peak effect: peak effect at four hours post drug administration
[4]
  ED50: 0.1 mg/kg
  activity in abolishing hind limb tonic extensor component: very active
[3]; [10]
  ED50: 22 mg/kg
[3]; [11]
  ED50: 18 mg/kg
[3]; 24 hr, read-out: 24 hr ED50
  ED50: > 40 mg/kg

## CCCCCC(C)C(C)c1cc(OC(=O)CCCN2CCCCCC2)c2c(c1)OC(C)(C)C1=C2CC(C)CC1 (stereo not shown) [Present compound, 3-(3-methyl-2-octyl)-1-[4-(1-homopiperidine)butyryloxy]-6,6,9-trimethyl-7,8,9,10-tetrahydro-6H-dibenzo[b,d]pyran hydrochloride]
[1]; [7]
  ED50: 6.8 mg/kg
[1]; [8]
  ED50: 1.1 mg/kg
[1]; [9]
  ED50: 55.9 mg/kg
[1]; daily, general description, read-out: oral ED50 for blocking the tonic extensor component of audiogenic seizures
  ED50: 1 to 2 mg/kg
[1]; mice, single oral dose, 24 hr post drug administration, hydrochloride, 1440 min
  24 hr ED50 (50% of animals protected from hindlimb tonic extension): 55.5 mg/kg
[1]; mouse audiogenic seizure test, hydrochloride
  anti-convulsant activity: marked activity in antagonizing the hind limb tonic extensor component; also recorded: potent anti-convulsant activity
[2]; [12]
  ED50: 7.8 mg/kg
[2]
  antagonism of preconvulsive running: preconvulsive running was not antagonized
[4]
  ED50: 0.7 mg/kg
  activity in abolishing hind limb tonic extensor component: marked activity in abolishing the hind limb tonic extensor component
[4]; audiogenic seizure test in mice
  retention of anticonvulsant activity on repeated medication: retained without any loss of the potency
[3]; [10]
  ED50: 60.6 mg/kg
[3]; [11]
  ED50: 7.4 mg/kg
[3]; 24 hr, read-out: 24 hr ED50
  ED50: > 150 mg/kg
[3]; rat supramaximal electroshock test, hydrochloride
  anti-convulsant activity: potent anti-convulsant activity; also recorded: marked activity in preventing the hind limb tonic extension feature of supramaximal electroshock
[5]; [13]
  tolerance to anticonvulsant activity: slight tolerance
[5]
  ED50: 37.2 mg/kg
[5]; daily higher doses such as 5.0 and 10.0 mg./kg.
  tolerance to anticonvulsant activity: increase in tolerance
[6]
  tolerance to side effects of sedation and irritability: marked tolerance develops to the side effects of sedation and irritability within a few days of medication
